Earlier results as cited in patent US11452308B2, “Method of selecting a probiotic” (SOCIETE DES PRODUITS NESTLE S.A., priority 2017, dated 2022).

How the values were obtained:
[1] = compared with hydroxytyrosol
[2] = in vivo

clearance from the plasma [2] | Compound | solubility in the lipophilic phases [1]
 | hydroxytyrosol acetate | more soluble in the lipophilic phases than hydroxytyrosol
slower clearance from the plasma | CC=C1C(O)OC=C(C(=O)OC)C1CC(=O)OCCc1ccc(O)c(O)c1 (centres unmarked) [oleuropein aglycone, 3,4-dihydroxyphenylethanol-elenolic acid] | 
